In paper PMC9820303, “^αN-Acetyl β-Endorphin Is an Endogenous Ligand of σ1Rs That Regulates Mu-Opioid Receptor Signaling by Exchanging G Proteins for σ2Rs in σ1R Oligomers” (International Journal of Molecular Sciences, 2022):
No end group written: not given here.

What was measured:
[1] = target: T1, σ1R-NR1 C1 (Mus musculus, UniProt O55242); assay: In vitro σ1R-NR1 C1 association of recombinant proteins (Western blot); type: biochemical, murine; conditions: increasing concentrations; 30 min RT; vs control without ligand
T1 construct: The coding region of the full-length murine σ1R (AF004927); GST (N, cleaved yes); made in house; host or cells: E. coli BL21 (KRX)
Procedure: (§1) Figure 7 Effect of β-End 1–31, ^αN-acetyl β-End 1–31 and their N-terminal derivatives on σ1R-σ2R, σ1R-NR1 C1 and σ1R-BiP associations. Amino acid sequence of β-End 1–31 showing derivatives 1–26 and 1–27. (A) HaloLink-attached σ2Rs were incubated for 30 min at RT in the presence of σ1Rs (100 nM) in 300 μL of 50 mM Tris-HCl (pH 7.4), 0.2% CHAPS, and 2.5 mM CaCl2. After removing the unbound σ1R proteins, the effects of increasing the peptide concentrations on σ1R-σ2R associations were studied. At the end of the incubation, protein complexes bound to HaloLink-σ2R were obtained by centrifugation, washed three times, solubilized in 2× Laemmli buffer containing β-mercaptoethanol, resolved by SDS-PAGE, and analyzed by Western blotting (for more details, see Section 4). This protocol was also used to assess the effect of ligands on (B) σ1R-NR1 C1 and (C) σ1R-BiP associations. Data were compared to that of the control, which was obtained in the absence of ligands. (A–C) Data are the mean ± SD, n = 3. (D) The β-End 1–31 structural models were predicted by Novafold (DNASTAR Lasergene protein v.17, Inc., Madison, WI, USA). Ribbon model: The 3D structure, charge distribution and hydrophobicity map of β-End 1–31 are shown. Positive charges are shown in red and negative charges in blue. Polar surfaces are shown in yellow, and nonpolar surfaces are shown in orange. Linear model: the opioid (1–5) and flexible region (8–11) sequences are shown in green and orange, respectively, and the amphiphilic helix (15–25) is shown in pink.
(§2) The recombinant σ1R (100 nM) was incubated either with Haloprotein (negative control) or together with the immobilized σ2R, NR1 C0-C1-C2 or BiP proteins in 300 µL of a buffer containing 50 mM Tris-HCl (pH 7.4) and 0.2% CHAPS in the presence of 2.5 mM CaCl2 for 30 min at RT. After removal of the unbound σ1R, the agarose-attached complexes were incubated for 30 min with rotation at RT in the presence of increasing concentrations of the ligands in a final reaction volume of 300 µL [50 mM Tris-HCl (pH 7.4), 2.5 mM CaCl2 and 0.2% CHAPS]. Ligands were usually dissolved in aqueous solutions; however, when an organic solvent such as DMSO was required to incorporate, e.g., pregnenolone sulfate, the solvent remained below 1% in the assay buffer. Agarose pellets containing the bound proteins were obtained by centrifugation, washed and resuspended thrice in the presence of 2.5 mM CaCl2, solubilized in 2× Laemmli buffer plus β-mercaptoethanol, and analyzed by Western blotting.
(§3) Because all the assays were performed with recombinant proteins, the immune signals provided a single band of the expected size, which was used for the subsequent densitometry analysis. Accordingly, no other regions of the blots provided information and were routinely excluded from the analysis.
Figure S8. Effect of the physiological and nonphysiological sequences of β-End 1-31 and classical σ1R ligands on BiP-σ1R, σ2R-σ1R and NR1 C1-σ1R associations . […]
D) Agarose-NR1 C1 loaded with […]
σ1Rs were incubated in the absence (control) and with nonphysiological derivatives of β-End 1-31. A-D) The σ1Rs that remained attached to the agarose complexes were evaluated by Western blotting. The […]
(§4) (1 picture or pasted object on this page, not shown here)
Figure S9. Effect of σ1R agonist/antagonist ligands on σ1R-NR1 C1 associations. Θ-Agarose-NR1 C1 was loaded with recombinant σ1Rs. After unbound σ1R proteins were removed, the complexes were incubated with (A) 1 nM β-End 1-31, (B) αN-acetyl β-End 1-31, (C-D) β-End 28-31 in the absence (black columns) and presence of (A) 10 nM or (B-D) increasing concentrations of competing σ1R ligands as indicated. The σ1Rs that remained attached to the Θ-σ2Rs were evaluated by Western blotting. The […]
Prog is progesterone; PregSulfate is pregnenolone sulfate; Nac is […]

[2] = target: T2, σ1R-BiP (Mus musculus, UniProt O55242); assay: In vitro σ1R-BiP association of recombinant proteins (Western blot); type: biochemical; conditions: for effect on σ1R-BiP association: increasing concentrations, 30 min RT, vs control without ligand
T2 construct: The coding region of the full-length murine σ1R (AF004927); GST (N, cleaved yes); host or cells: E. coli BL21 (KRX) for σ1R
Procedure: as §1, §2, §3
Figure S8. Effect of the physiological and nonphysiological sequences of β-End 1-31 and classical σ1R ligands on BiP-σ1R, σ2R-σ1R and NR1 C1-σ1R associations . Agarose-BiP was loaded with σ1Rs, and after the unbound σ1Rs were removed, the agarose-BiP-σ1R complexes were incubated in the absence (control) and presence of increasing concentrations of (A) β-End 1-31 C-terminal physiological derivatives and (B) classical σ1R ligands. C) Agarose-σ2R loaded with σ1Rs was incubated in the absence (control) and with nonphysiological derivatives of β-End 1-31. D) Agarose-NR1 C1 loaded with σ1Rs were incubated in the absence (control) and with nonphysiological derivatives of β-End 1-31. A-D) The σ1Rs that remained attached to the agarose complexes were evaluated by Western blotting. The […]
as §4
Figure S10. Effect of σ1R agonist/antagonist ligands on σ1R-BiP associations. Agarose-attached BiP proteins were incubated for 30 min in the presence of recombinant σ1R (100 nM) proteins in 300 μL of 50 mM Tris-HCl (pH 7.4), 0.2% CHAPS, and 2.5 mM CaCl2. After the unbound σ1R proteins were […]

[3] = target: σ1R-σ2R (Mus musculus, UniProt O55242); assay: In vitro σ1R-σ2R association of recombinant proteins (HaloLink-σ2R, Western blot); type: biochemical, murine; parameters: The coding region of the full-length murine σ1R (AF004927); GST (N, cleaved yes); made in house; host or cells: E. coli BL21 (KRX); conditions: increasing concentrations; 30 min RT; vs control without ligand
Procedure: as §1, §2, §3
Figure S7. Effect of σ1R agonist/antagonist ligands on σ1R-σ2R heterodimers. (A-C) Agarose (Θ)- attached σ2Rs captured recombinant σ1Rs. After removing unbound σ1R proteins, the Θ-σ2R.σ1R complexes were incubated with a ﬁxed concentration of a selected L1 ligand (indicated in brackets) in the absence and presence of increasing concentrations of competing σ1R ligands as indicated. The σ1Rs that remained attached to the Θ-σ2Rs were evaluated by Western blotting. * Signiﬁcant differences with respect to the control group that was incubated without L1 ligands. ANOVA followed by the Holm-Sidak multiple comparisons test, p < 0.05. For details, see Methods and Figure 6A. Representative blots are […]
Figure S8. Effect of the physiological and nonphysiological sequences of β-End 1-31 and classical σ1R ligands on BiP-σ1R, σ2R-σ1R and NR1 C1-σ1R associations . Agarose-BiP was loaded with σ1Rs, and after the unbound σ1Rs were removed, the agarose-BiP-σ1R complexes were incubated in the absence (control) and presence of increasing concentrations of (A) β-End 1-31 C-terminal physiological derivatives and (B) classical σ1R ligands. C) Agarose-σ2R loaded with σ1Rs was incubated in the […]

T2 sequence (O55242 whole entry): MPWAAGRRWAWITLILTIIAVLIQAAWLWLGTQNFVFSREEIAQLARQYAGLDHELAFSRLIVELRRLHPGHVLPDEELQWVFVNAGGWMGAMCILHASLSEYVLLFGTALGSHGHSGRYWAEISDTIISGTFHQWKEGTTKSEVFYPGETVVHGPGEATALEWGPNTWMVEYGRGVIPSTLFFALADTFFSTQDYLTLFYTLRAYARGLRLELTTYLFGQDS
T1 sequence (O55242 whole entry): as above
Chain of σ1R-σ2R (O55242 whole entry): as above

Row | Compound | effect on σ1R-NR1 C1 association [1] | activity at σ1R-BiP against agonists / β-End 1–31 ([2]; 1 nM β-End 1–31 with increasing competitor (Figure S10)) | effect on σ1R-BiP association [2] | effect on σ1R-σ2R association [3]
1 | ^αN-acetyl β-End 1–26: ^αN-acetylated form of β-End 1–26 (Ac-YGGFMTSEKSQTPLVTLFKNAIIKNA; UniProt P01189 237-262, looked up, fragment) | separated σ1Rs from NR1 C1 subunits at pM concentrations | antagonist activity | promoted σ1R-BiP complexes | 
2 | Pregnenolone sulfate [reference compound] | increased σ1R-NR1 C1 complexes |  | impaired σ1R associations with σ2R and BiP | impaired σ1R associations with σ2R and BiP
3 | CC(=O)[C@H]1CC[C@H]2[C@@H]3CCC4=CC(=O)CC[C@]4(C)[C@H]3CC[C@]12C [progesterone, Progesterone, reference compound] | did the opposite |  | did the opposite | did the opposite
